Patent US6380134B1, “N-pyridyl herbicide compounds” (Syngenta Crop Protection, Inc., priority 1998, dated 2002)

Assays:
Assay type in all cases: in vivo
Design in all cases: key: 1=complete damage; 9=no effect; Score figures of 1 to 4 (in particular 1 to 3) signify a good to very good herbicidal action
Sinapis [1] = assay: Post-emergence herbicidal action; settings: dose 2000 g a.i./ha; sprayed at 4- to 6-leaf stage; evaluated after approximately 18 days; nine-level key (1=complete damage, 9=no effect)
Experimental: (§1) Monocotyledonous and dicotyledonous test plants are grown in the greenhouse in plastic pots containing standard soil and, in the 4- to 6-leaf stage, sprayed with an aqueous suspension of the test substances of the formula I, prepared from a 25% strength wettable powder (Example F3, b) in accordance with WO 97/34485) or with an emulsion of the test substances of the formula I, prepared from a 25% strength emulsion concentrate (Example F1, c) in accordance with WO 97/34485), corresponding to a dosage of 2 kg/ a.i./ha (500 l of water/ha). The test plants are subsequently grown on in the greenhouse under optimal conditions. After a test period of approximately 18 days, the experiment is evaluated using a nine-level key (1=complete damage, 9=no effect). Score figures of 1 to 4 (in particular 1 to 3) signify a good to very good herbicidal action.
(§2) Test plants: Lolium, Setaria, Sinapis, Solanum, Stellaria, Ipomea.

Stellaria [2] = assay: Post-emergence herbicidal action; settings: dose 2000 g a.i./ha; sprayed at 4- to 6-leaf stage; evaluated after approximately 18 days; nine-level key (1=complete damage, 9=no effect)
Experimental: as §1, §2

Solanum [3] = assay: Post-emergence herbicidal action; settings: dose 2000 g a.i./ha; sprayed at 4- to 6-leaf stage; evaluated after approximately 18 days; nine-level key (1=complete damage, 9=no effect)
Experimental: as §1, §2

Ipomoea [4] = assay: Post-emergence herbicidal action; settings: dose 2000 g a.i./ha; sprayed at 4- to 6-leaf stage; evaluated after approximately 18 days; nine-level key (1=complete damage, 9=no effect)
Experimental: as §1, §2

Lolium [5] = assay: Post-emergence herbicidal action; settings: dose 2000 g a.i./ha; sprayed at 4- to 6-leaf stage; evaluated after approximately 18 days; nine-level key (1=complete damage, 9=no effect)
Experimental: as §1, §2

Setaria [6] = assay: Post-emergence herbicidal action; settings: dose 2000 g a.i./ha; sprayed at 4- to 6-leaf stage; evaluated after approximately 18 days; nine-level key (1=complete damage, 9=no effect)
Experimental: as §1, §2

Sinapis [7] = assay: Herbicidal action before plant emergence (pre-emergence action); settings: 2000 g a.i./ha sprayed immediately after sowing; evaluated after 3 weeks; nine-level key (1=complete damage, 9=no effect)
Text: (§3) Monocotyledonous and dicotyledonous test plants are sown in standard soil in plastic pots. Immediately after sowing, the test substances are sprayed on as aqueous suspensions (prepared from a 25% strength wettable powder (Example F3, b) in accordance with WO 97/34485) or as emulsions (prepared from a 25% strength emulsion concentrate (Example F1, c) in accordance with WO 97/34485), corresponding to a dosage of 2 kg of a.i./ha (500 l of water/ha). The test plants are subsequently grown in the greenhouse under optimal conditions. After a test period of 3 weeks, the experiment is evaluated using a nine-level key (1=complete damage, 9=no effect). Score figures of 1 to 4 (in particular 1 to 3) signify a good to very good herbicidal action.
as §2

Stellaria [8] = assay: as above; settings: 2000 g a.i./ha sprayed immediately after sowing; evaluated after 3 weeks; nine-level key (1=complete damage, 9=no effect)
Text: as §3, §2

Solanum [9] = assay: as above; settings: 2000 g a.i./ha sprayed immediately after sowing; evaluated after 3 weeks; nine-level key (1=complete damage, 9=no effect)
Text: as §3, §2

Ipomoea [10] = assay: as above; settings: 2000 g a.i./ha sprayed immediately after sowing; evaluated after 3 weeks; nine-level key (1=complete damage, 9=no effect)
Text: as §3, §2

Lolium [11] = assay: as above; settings: 2000 g a.i./ha sprayed immediately after sowing; evaluated after 3 weeks; nine-level key (1=complete damage, 9=no effect)
Text: as §3, §2

Setaria [12] = assay: as above; settings: 2000 g a.i./ha sprayed immediately after sowing; evaluated after 3 weeks; nine-level key (1=complete damage, 9=no effect)
Text: as §3, §2

COC(=O)C(C)Oc1nc(-n2c(=O)cc(C(F)(F)F)n(C)c2=O)c(F)cc1Cl (centres unmarked) [1.048]
Post-emergence action, score, Sinapis (Sinapis [1]): 1 | Post-emergence action, score, Stellaria (Stellaria [2]): 1 | Post-emergence action, score, Solanum (Solanum [3]): 1 | Post-emergence action, score, Ipomoea (Ipomoea [4]): 1 | Post-emergence action, score, Lolium (Lolium [5]): 1 | Post-emergence action, score, Setaria (Setaria [6]): 1 | Pre-emergence action, score, test plant Sinapis (Sinapis [7]): 1 | Pre-emergence action, score, test plant Stellaria (Stellaria [8]): 1 | Pre-emergence action, score, test plant Solanum (Solanum [9]): 1 | Pre-emergence action, score, test plant Ipomoea (Ipomoea [10]): 1 | Pre-emergence action, score, test plant Lolium (Lolium [11]): 1 | Pre-emergence action, score, test plant Setaria (Setaria [12]): 1

COC(=O)C(C)Oc1cc(F)c(-n2c(=O)cc(C(F)(F)F)n(C)c2=O)nc1Cl (centres unmarked) [500.029]
Post-emergence action, score, Sinapis (Sinapis [1]): 1 | Post-emergence action, score, Solanum (Solanum [3]): 1 | Post-emergence action, score, Ipomoea (Ipomoea [4]): 1 | Pre-emergence action, score, test plant Solanum (Solanum [9]): 1 | Pre-emergence action, score, test plant Setaria (Setaria [12]): 4

CSC(=O)COc1cc(F)c(-n2c(=O)cc(C(F)(F)F)n(C)c2=O)nc1Cl [500.033]
Post-emergence action, score, Sinapis (Sinapis [1]): 1 | Post-emergence action, score, Solanum (Solanum [3]): 1 | Post-emergence action, score, Ipomoea (Ipomoea [4]): 1 | Pre-emergence action, score, test plant Solanum (Solanum [9]): 1 | Pre-emergence action, score, test plant Setaria (Setaria [12]): 2

CCCOc1nc(-n2c(=O)cc(C(F)(F)F)n(C)c2=O)c(F)cc1Cl [1.367]
Post-emergence action, score, Sinapis (Sinapis [1]): 1 | Post-emergence action, score, Stellaria (Stellaria [2]): 1 | Post-emergence action, score, Solanum (Solanum [3]): 1 | Post-emergence action, score, Ipomoea (Ipomoea [4]): 1 | Post-emergence action, score, Lolium (Lolium [5]): 1 | Post-emergence action, score, Setaria (Setaria [6]): 1 | Pre-emergence action, score, test plant Sinapis (Sinapis [7]): 1 | Pre-emergence action, score, test plant Stellaria (Stellaria [8]): 1 | Pre-emergence action, score, test plant Solanum (Solanum [9]): 1 | Pre-emergence action, score, test plant Ipomoea (Ipomoea [10]): 1 | Pre-emergence action, score, test plant Lolium (Lolium [11]): 1 | Pre-emergence action, score, test plant Setaria (Setaria [12]): 1

C=CCOC(=O)C(C)(C)Oc1nc(-n2c(=O)cc(C(F)(F)F)n(C)c2=O)c(F)cc1Cl [1.402]
Post-emergence action, score, Sinapis (Sinapis [1]): 1 | Post-emergence action, score, Stellaria (Stellaria [2]): 1 | Post-emergence action, score, Solanum (Solanum [3]): 1 | Post-emergence action, score, Ipomoea (Ipomoea [4]): 1 | Post-emergence action, score, Lolium (Lolium [5]): 1 | Post-emergence action, score, Setaria (Setaria [6]): 1 | Pre-emergence action, score, test plant Sinapis (Sinapis [7]): 1 | Pre-emergence action, score, test plant Stellaria (Stellaria [8]): 1 | Pre-emergence action, score, test plant Solanum (Solanum [9]): 1 | Pre-emergence action, score, test plant Ipomoea (Ipomoea [10]): 4 | Pre-emergence action, score, test plant Lolium (Lolium [11]): 1 | Pre-emergence action, score, test plant Setaria (Setaria [12]): 1

Cn1c(C(F)(F)F)cc(=O)n(-c2nc(OCOCc3ccccc3)c(Cl)cc2F)c1=O [1.025]
Post-emergence action, score, Sinapis (Sinapis [1]): 1 | Post-emergence action, score, Stellaria (Stellaria [2]): 1 | Post-emergence action, score, Solanum (Solanum [3]): 1 | Post-emergence action, score, Ipomoea (Ipomoea [4]): 1 | Post-emergence action, score, Lolium (Lolium [5]): 1 | Post-emergence action, score, Setaria (Setaria [6]): 3 | Pre-emergence action, score, test plant Sinapis (Sinapis [7]): 1 | Pre-emergence action, score, test plant Stellaria (Stellaria [8]): 3 | Pre-emergence action, score, test plant Solanum (Solanum [9]): 1 | Pre-emergence action, score, test plant Ipomoea (Ipomoea [10]): 1 | Pre-emergence action, score, test plant Lolium (Lolium [11]): 3 | Pre-emergence action, score, test plant Setaria (Setaria [12]): 1

CCOC(=O)COc1nc(-n2c(=O)cc(C(F)(F)F)n(C)c2=O)c(F)cc1Cl [1.047]
Post-emergence action, score, Sinapis (Sinapis [1]): 1 | Post-emergence action, score, Stellaria (Stellaria [2]): 4 | Post-emergence action, score, Solanum (Solanum [3]): 1 | Post-emergence action, score, Ipomoea (Ipomoea [4]): 1 | Post-emergence action, score, Lolium (Lolium [5]): 3 | Post-emergence action, score, Setaria (Setaria [6]): 1 | Pre-emergence action, score, test plant Sinapis (Sinapis [7]): 1 | Pre-emergence action, score, test plant Stellaria (Stellaria [8]): 7 | Pre-emergence action, score, test plant Solanum (Solanum [9]): 1 | Pre-emergence action, score, test plant Ipomoea (Ipomoea [10]): 1 | Pre-emergence action, score, test plant Lolium (Lolium [11]): 5 | Pre-emergence action, score, test plant Setaria (Setaria [12]): 1

Cn1c(C(F)(F)F)cc(=O)n(-c2nc(OCC(N)=O)c(Cl)cc2F)c1=O [1.366]
Post-emergence action, score, Sinapis (Sinapis [1]): 1 | Post-emergence action, score, Stellaria (Stellaria [2]): 1 | Post-emergence action, score, Solanum (Solanum [3]): 1 | Post-emergence action, score, Ipomoea (Ipomoea [4]): 1 | Post-emergence action, score, Lolium (Lolium [5]): 1 | Post-emergence action, score, Setaria (Setaria [6]): 1 | Pre-emergence action, score, test plant Sinapis (Sinapis [7]): 1 | Pre-emergence action, score, test plant Stellaria (Stellaria [8]): 3 | Pre-emergence action, score, test plant Solanum (Solanum [9]): 1 | Pre-emergence action, score, test plant Ipomoea (Ipomoea [10]): 1 | Pre-emergence action, score, test plant Lolium (Lolium [11]): 3 | Pre-emergence action, score, test plant Setaria (Setaria [12]): 1

Cn1c(C(F)(F)F)cc(=O)n(-c2nc(OCC(F)(F)F)c(Cl)cc2F)c1=O [1.365]
Post-emergence action, score, Sinapis (Sinapis [1]): 1 | Post-emergence action, score, Stellaria (Stellaria [2]): 1 | Post-emergence action, score, Solanum (Solanum [3]): 1 | Post-emergence action, score, Ipomoea (Ipomoea [4]): 1 | Post-emergence action, score, Lolium (Lolium [5]): 1 | Post-emergence action, score, Setaria (Setaria [6]): 1 | Pre-emergence action, score, test plant Sinapis (Sinapis [7]): 1 | Pre-emergence action, score, test plant Stellaria (Stellaria [8]): 1 | Pre-emergence action, score, test plant Solanum (Solanum [9]): 1 | Pre-emergence action, score, test plant Ipomoea (Ipomoea [10]): 1 | Pre-emergence action, score, test plant Lolium (Lolium [11]): 1 | Pre-emergence action, score, test plant Setaria (Setaria [12]): 1

COc1nc(-n2c(=O)cc(C(F)(F)F)n(C)c2=O)c(F)cc1Cl [1.016]
Post-emergence action, score, Sinapis (Sinapis [1]): 1 | Post-emergence action, score, Stellaria (Stellaria [2]): 1 | Post-emergence action, score, Solanum (Solanum [3]): 1 | Post-emergence action, score, Ipomoea (Ipomoea [4]): 1 | Post-emergence action, score, Lolium (Lolium [5]): 1 | Post-emergence action, score, Setaria (Setaria [6]): 1 | Pre-emergence action, score, test plant Sinapis (Sinapis [7]): 1 | Pre-emergence action, score, test plant Stellaria (Stellaria [8]): 1 | Pre-emergence action, score, test plant Solanum (Solanum [9]): 1 | Pre-emergence action, score, test plant Ipomoea (Ipomoea [10]): 1 | Pre-emergence action, score, test plant Lolium (Lolium [11]): 1 | Pre-emergence action, score, test plant Setaria (Setaria [12]): 1

CCOc1cc(F)c(-n2c(=O)cc(C(F)(F)F)n(C)c2=O)nc1Cl [500.004]
Post-emergence action, score, Sinapis (Sinapis [1]): 2 | Post-emergence action, score, Solanum (Solanum [3]): 1 | Post-emergence action, score, Ipomoea (Ipomoea [4]): 3

C=CCOc1nc(-n2c(=O)cc(C(F)(F)F)n(C)c2=O)c(F)cc1Cl [1.020]
Post-emergence action, score, Sinapis (Sinapis [1]): 1 | Post-emergence action, score, Stellaria (Stellaria [2]): 1 | Post-emergence action, score, Solanum (Solanum [3]): 1 | Post-emergence action, score, Ipomoea (Ipomoea [4]): 1 | Post-emergence action, score, Lolium (Lolium [5]): 1 | Post-emergence action, score, Setaria (Setaria [6]): 1 | Pre-emergence action, score, test plant Sinapis (Sinapis [7]): 1 | Pre-emergence action, score, test plant Stellaria (Stellaria [8]): 1 | Pre-emergence action, score, test plant Solanum (Solanum [9]): 1 | Pre-emergence action, score, test plant Ipomoea (Ipomoea [10]): 1 | Pre-emergence action, score, test plant Lolium (Lolium [11]): 1 | Pre-emergence action, score, test plant Setaria (Setaria [12]): 1

Cn1c(C(F)(F)F)cc(=O)n(-c2nc(OCC#N)c(Cl)cc2F)c1=O [1.363]
Post-emergence action, score, Sinapis (Sinapis [1]): 1 | Post-emergence action, score, Stellaria (Stellaria [2]): 1 | Post-emergence action, score, Solanum (Solanum [3]): 1 | Post-emergence action, score, Ipomoea (Ipomoea [4]): 1 | Post-emergence action, score, Lolium (Lolium [5]): 1 | Post-emergence action, score, Setaria (Setaria [6]): 1 | Pre-emergence action, score, test plant Sinapis (Sinapis [7]): 2 | Pre-emergence action, score, test plant Stellaria (Stellaria [8]): 1 | Pre-emergence action, score, test plant Solanum (Solanum [9]): 1 | Pre-emergence action, score, test plant Ipomoea (Ipomoea [10]): 7 | Pre-emergence action, score, test plant Lolium (Lolium [11]): 3 | Pre-emergence action, score, test plant Setaria (Setaria [12]): 1

COC(=O)C(Oc1cc(Cl)c(-n2c(=O)cc(C(F)(F)F)n(C)c2=O)nc1Cl)c1ccccc1 (centres unmarked) [500.144]
Pre-emergence action, score, test plant Solanum (Solanum [9]): 1 | Pre-emergence action, score, test plant Setaria (Setaria [12]): 2

C=CCOc1cc(F)c(-n2c(=O)cc(C(F)(F)F)n(C)c2=O)nc1Cl [500.007]
Pre-emergence action, score, test plant Solanum (Solanum [9]): 1 | Pre-emergence action, score, test plant Setaria (Setaria [12]): 4
